Data taken from patent publication US11912701B2, “Protein kinase inhibitors for promoting liver regeneration or reducing or preventing hepatocyte death” (HEPAREGENIX GMBH, priority 2018, dated 2024).

Columns and labels:
Format in all cases: biochemical
MKK4 = molecular target: T1, MKK4 (Homo sapiens, UniProt P45985); assay: 33PanQinase enzyme assay, MKK4; settings: assay 'IC50'; read-out: Potency MKK4 (IC50)
T1 construct: purchased ProQinase GmbH, Freiburg, Germany (33PanQinase Assay Service)
T1 sequence (P45985 1-399): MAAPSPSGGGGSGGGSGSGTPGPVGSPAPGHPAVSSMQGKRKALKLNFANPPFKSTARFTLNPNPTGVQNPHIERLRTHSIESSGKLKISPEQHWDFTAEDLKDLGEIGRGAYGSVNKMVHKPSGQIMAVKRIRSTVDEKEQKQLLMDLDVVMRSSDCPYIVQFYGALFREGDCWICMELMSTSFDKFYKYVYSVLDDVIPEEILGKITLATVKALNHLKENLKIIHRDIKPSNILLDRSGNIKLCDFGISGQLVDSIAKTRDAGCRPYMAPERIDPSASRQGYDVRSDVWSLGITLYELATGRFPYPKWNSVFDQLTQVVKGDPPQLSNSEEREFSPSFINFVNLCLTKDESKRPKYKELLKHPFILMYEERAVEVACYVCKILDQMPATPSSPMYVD
Experimental: (§1) The kinase activities of the compounds of the invention were measured using the 33PanQinase® Assay Service provided by ProQinase GmbH, Freiburg, Germany. Details of the assay conditions are disclosed on the website of ProQinase (https://www.proginase.com/products-services-biochemical-assay-services/kinase-assays). In brief, all kinase assays were performed in 96-well FlashPlates™ from PerkinElmer (Boston, MA, USA) in a 50 μl reaction volume. The reaction cocktail was pipetted in four steps in the following order: • 20 μl of assay buffer (standard buffer) • 5 μl of ATP solution (in H2O) • 5 μl of test compound (in 10% DMSO) • 20 μl enzyme/subtrate mix
(§2) The reaction cocktails were incubated at 30° C. for 60 minutes. The reaction is stopped with 50 μl of 2% (v/v) H3PO4, plates were aspirated and washed two times with 200 μl 0.9% (w/v) NaCl. Incorporation of ^33Pi was determined with a microplate scintillation counter (Microbeta, Wallac).
(§3) All assays were performed with a BeckmanCoulter/SAGIAN™ Core System.
(§4) In case of single concentration assays, the potency of the test compound is expressed as % residual activity. […] The fitting method used was a least-squares fit.
Inhibition potency against MKK4 is categorized as follows:
Assay at single concentration (100 nM):

BRaf = molecular target: T2, BRaf (Homo sapiens, UniProt P15056); assay: 33PanQinase enzyme assay, BRaf; settings: ratio IC50(BRaf)/IC50(MKK4)
T2 construct: purchased ProQinase GmbH, Freiburg, Germany (33PanQinase Assay Service)
T2 sequence (P15056 whole entry, species assumed): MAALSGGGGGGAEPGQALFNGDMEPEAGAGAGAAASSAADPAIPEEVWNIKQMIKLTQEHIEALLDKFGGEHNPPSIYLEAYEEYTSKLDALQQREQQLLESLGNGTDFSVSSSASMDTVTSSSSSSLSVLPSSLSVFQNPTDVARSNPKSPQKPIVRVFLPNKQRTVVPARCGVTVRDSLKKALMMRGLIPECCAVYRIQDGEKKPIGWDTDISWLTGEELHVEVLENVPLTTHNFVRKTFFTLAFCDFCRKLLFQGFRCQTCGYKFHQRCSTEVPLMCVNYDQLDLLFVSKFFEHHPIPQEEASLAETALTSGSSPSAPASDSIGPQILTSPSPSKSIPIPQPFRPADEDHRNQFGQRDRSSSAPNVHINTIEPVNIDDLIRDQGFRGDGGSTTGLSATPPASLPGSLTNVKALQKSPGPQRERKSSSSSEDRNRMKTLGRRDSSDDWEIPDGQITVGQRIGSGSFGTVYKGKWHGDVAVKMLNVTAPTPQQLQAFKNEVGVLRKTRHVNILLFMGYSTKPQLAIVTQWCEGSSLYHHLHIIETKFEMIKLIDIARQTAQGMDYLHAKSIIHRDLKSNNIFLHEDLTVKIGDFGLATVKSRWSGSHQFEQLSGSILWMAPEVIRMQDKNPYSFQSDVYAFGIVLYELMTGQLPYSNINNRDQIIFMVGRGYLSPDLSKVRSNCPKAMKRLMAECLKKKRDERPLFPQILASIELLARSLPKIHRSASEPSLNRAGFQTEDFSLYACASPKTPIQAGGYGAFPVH
Experimental: as §1, §2, §3, §4
(§5) Selectivity of test compounds against BRaf, JNK1 and MKK7, altogether denominated as off-targets was calculated by the ratio of IC50 (off-target)/IC50 (MKK4) and categorized as follows: […]

JNK1 = JNK1 (Homo sapiens, UniProt P45983); assay: 33PanQinase enzyme assay, JNK1; parameters: purchased ProQinase GmbH, Freiburg, Germany (33PanQinase Assay Service); settings: ratio IC50(JNK1)/IC50(MKK4)
JNK1, sequence (P45983 whole entry): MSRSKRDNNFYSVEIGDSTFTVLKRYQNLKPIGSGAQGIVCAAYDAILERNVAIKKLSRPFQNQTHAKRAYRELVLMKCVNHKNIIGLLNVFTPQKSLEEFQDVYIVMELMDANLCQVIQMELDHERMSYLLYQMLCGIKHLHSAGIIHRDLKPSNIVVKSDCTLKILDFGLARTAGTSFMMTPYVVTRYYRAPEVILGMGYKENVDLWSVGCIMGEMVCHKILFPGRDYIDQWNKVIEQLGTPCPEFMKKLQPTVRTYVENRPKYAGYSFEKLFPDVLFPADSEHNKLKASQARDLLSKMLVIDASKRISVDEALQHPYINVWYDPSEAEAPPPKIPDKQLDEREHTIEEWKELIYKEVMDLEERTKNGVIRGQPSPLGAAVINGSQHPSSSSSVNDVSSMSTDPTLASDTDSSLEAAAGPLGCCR
Experimental: as §1, §2, §3, §4, §5

MKK7 = molecular target: T3, MKK7 (Homo sapiens, UniProt O14733); assay: 33PanQinase enzyme assay, MKK7; parameters: purchased ProQinase GmbH, Freiburg, Germany (33PanQinase Assay Service); settings: ratio IC50(MKK7)/IC50(MKK4)
T3 sequence (O14733 1-419): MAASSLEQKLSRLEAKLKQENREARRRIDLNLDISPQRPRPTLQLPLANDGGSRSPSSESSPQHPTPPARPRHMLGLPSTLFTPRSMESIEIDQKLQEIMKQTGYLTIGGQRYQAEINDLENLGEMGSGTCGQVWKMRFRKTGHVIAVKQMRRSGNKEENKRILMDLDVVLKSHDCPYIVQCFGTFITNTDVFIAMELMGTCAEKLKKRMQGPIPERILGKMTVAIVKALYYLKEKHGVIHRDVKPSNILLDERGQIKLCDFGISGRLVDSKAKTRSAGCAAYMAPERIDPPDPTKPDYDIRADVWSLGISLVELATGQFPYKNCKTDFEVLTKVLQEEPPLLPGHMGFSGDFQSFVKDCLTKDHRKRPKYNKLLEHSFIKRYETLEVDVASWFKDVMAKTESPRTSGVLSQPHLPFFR
Experimental: as §1, §2, §3, §4, §5

| Structure (SMILES) | IC50 (MKK4) [nM] | Selectivity JNK1, IC50(off-target)/IC50(MKK4) (JNK1) | Selectivity IVIKK7, IC50(off-target)/IC50(MKK4) (MKK7) | Selectivity Braf, IC50(off-target)/IC50(MKK4) (BRaf) |
| --- | --- | --- | --- | --- |
| CCCS(=O)(=O)Nc1ccc(F)c(C(=O)c2c[nH]c3ncc(-c4ccc(N=S(C)(C)=O)cc4)cc23)c1F [Example 119, N-(3-(5-(4-((dimethyl(oxo)-l6-sulfaneylidene)amino)phenyl)-1H-pyrrolo[2,3-b]pyridine-3-carbonyl)-2,4-difluorophenyl)propane-1-sulfonamide] | 100 to 1000 | ◯ (3 ≥ IC50(off-target)/IC50(MKK4)) | +++ (IC50(off-target)/IC50(MKK4) > 100) | ◯ (3 ≥ IC50(off-target)/IC50(MKK4)) |
| CCCS(=O)(=O)Nc1ccc(F)c(C(=O)c2c[nH]c3ncc(-c4ccccc4N)cc23)c1F [Example 122, N-(3-(5-(2-aminophenyl)-1H-pyrrolo[2,3-b]pyridine-3-carbonyl)-2,4-difluorophenyl)propane-1-sulfonamide] | 100 to 1000 | ◯ (3 ≥ IC50(off-target)/IC50(MKK4)) | +++ (IC50(off-target)/IC50(MKK4) > 100) | ◯ (3 ≥ IC50(off-target)/IC50(MKK4)) |
| COc1ncc(-c2cnc3[nH]cc(C(=O)c4cccc(NS(=O)(=O)Cc5ccccc5)c4F)c3c2)cn1 [Example 130, N-(2-fluoro-3-(5-(2-methoxypyrimidin-5-yl)-1H-pyrrolo[2,3-b]pyridine-3-carbonyl)phenyl)-1-phenylmethanesulfonamide] | 100 to 1000 | ++ (100 ≥ IC50(off-target)/IC50(MKK4) > 10) | +++ (IC50(off-target)/IC50(MKK4) > 100) | ++ (100 ≥ IC50(off-target)/IC50(MKK4) > 10) |
| O=C(c1cccc(NS(=O)(=O)Cc2ccccc2)c1F)c1c[nH]c2ncc(-c3cnc(C4CC4)nc3)cc12 [Example 131, N-(3-(5-(2-cyclopropylpyrimidin-5-yl)-1H-pyrrolo[2,3-b]pyridine-3-carbonyl)-2-fluorophenyl)-1-phenylmethanesulfonamide] | 100 to 1000 | ++ (100 ≥ IC50(off-target)/IC50(MKK4) > 10) | +++ (IC50(off-target)/IC50(MKK4) > 100) | ++ (100 ≥ IC50(off-target)/IC50(MKK4) > 10) |
| CCCS(=O)(=O)Nc1ccc(F)c(C(=O)c2c[nH]c3ncc(N4CC(O)C4)cc23)c1F [Example 134, N-(2,4-difluoro-3-(5-(3-hydroxyazetidin-1-yl)-1H-pyrrolo[2,3-b]pyridine-3-carbonyl)phenyl)propane-1-sulfonamide] | 1000 to 10000 | ◯ (3 ≥ IC50(off-target)/IC50(MKK4)) | ++ (100 ≥ IC50(off-target)/IC50(MKK4) > 10) | ◯ (3 ≥ IC50(off-target)/IC50(MKK4)) |

More lines, main results first:

| IC50 (MKK4) [nM] | Selectivity JNK1, IC50(off-target)/IC50(MKK4) (JNK1) | Selectivity IVIKK7, IC50(off-target)/IC50(MKK4) (MKK7) | Structure (SMILES) | Selectivity Braf, IC50(off-target)/IC50(MKK4) (BRaf) |
| --- | --- | --- | --- | --- |
| 100 to 1000 | ◯ (3 ≥ IC50(off-target)/IC50(MKK4)) | +++ (IC50(off-target)/IC50(MKK4) > 100) | O=C(c1cccc(NS(=O)(=O)Cc2ccccc2)c1F)c1c[nH]c2ncc(-c3cccnc3)cc12 [Example 132, N-(2-fluoro-3-(5-(pyridin-3-yl)-1H-pyrrolo[2,3-b]pyridine-3-carbonyl)phenyl)-1-phenylmethanesulfonamide] | ++ (100 ≥ IC50(off-target)/IC50(MKK4) > 10) |
| 100 to 1000 | ◯ (3 ≥ IC50(off-target)/IC50(MKK4)) | +++ (IC50(off-target)/IC50(MKK4) > 100) | O=C(c1ccc(F)c(NS(=O)(=O)Cc2ccccc2)c1)c1c[nH]c2ncc(-c3ccc(Cl)cc3)cc12 [Example 133, N-(5-(5-(4-chlorophenyl)-1H-pyrrolo[2,3-b]pyridine-3-carbonyl)-2-fluorophenyl)-1-phenylmethanesulfonamide] | ++ (100 ≥ IC50(off-target)/IC50(MKK4) > 10) |
